Assay results published in patent publication US12173042B2, “Methods of treating cancers with CT45 targeted therapies” (The University of Chicago, priority 2016, dated 2024).
“Also recorded” adds a separate entry of the source.

Legend:
59M cells = assay: Colony assay of carboplatin treated 59M cells with siRNA; type: cell-based, human; conditions: cells deficient in PP4 or expressing CT45
Source text: FIG. 23. Cell deficient in PP4 or expressing the endogenous PP4 inhibitor CT45 are hypersensitive to carboplatin treatment. Shown are colony assay results of carboplatin treated 59M cells transfected with a control siRNA, PP4C siRNA or CT45 siRNA. Colony numbers are normalized to untreated cells of each siRNA.

[1] = system: KAP-1 Ser824 phosphorylation; assay: KAP-1 Ser824 phosphorylation (western blot, immunofluorescence); type: cell-based, human; conditions: carboplatin 5 μM
Description: Cells were treated with indicated drugs for 3 days and then media was changed. On indicated day of collection, both adherent and non-adherent cells were collected in RIPA buffer (25 mM Tris-HCl pH 7.6, 150 mM NaCl, 1% NP-40, 0.5% sodium deoxycholate, 0.1% SDS) supplemented with protease inhibitor cocktail (Thermo Scientific) and phosphatase inhibitor cocktail (Sigma). Lysates were incubated for 30 min on ice, sonicated and cleared by centrifugation (15 min, 14 000 rpm, 4° C.). The quantity of protein was determined by BCA reagent (Pierce). The extracts were analyzed by SDS-PAGE on a 4-20% gradient gel (Bio-Rad).
Cells were treated with 0 or 5 μM carboplatin on glass chamber slides. After 72 hr, media was changed. At designated timepoints, slides were fixed for 10 min at room temperature with 4% paraformaldehyde, cells were washed and permeabilized with PBS/0.1% Triton-X for 15 min and then blocked for 1 hr in blocking buffer (PBS/0.1% Triton-X/0.05% BSA/0.05% goat serum). Cells were washed three times and then were then incubated with primary antibody overnight diluted in blocking buffer at 4° C. Following three washes, cells were incubated with secondary antibody (diluted in blocking buffer) for 1 hr at room temperature and then with Hoechst 33342 for 2 min. Slides were mounted with ProLong Gold Antifade. […] A minimum of 100 cells/sample were analyzed. […]

[2] = system: chromatin of OVCAR5-V5-CT45 and OVCAR5-V5 cells; assay: Micrococcal nuclease (MNase) assay; type: cell-based, human; conditions: after five days, vector control and CT45 overexpressing cell line
Description: Chromatin relaxation was assayed using the micrococcal nuclease (MNase) assay as previously described, with a few modifications. Briefly, nuclei from 1E6 cells were extracted with 300 μl ice-cold lysis buffer (10 mM Tris-HCl (pH 7.5), 10 mM NaCl, 3 mM MgCl2 and 0.4% IGPAL-CA-630) on ice for 5 min. After centrifugation (2,000 g for 5 min at 4° C.), nuclei were washed two times in lysis buffer and one time in 500 μl digestion buffer (0.32M sucrose, 50 mM Tris-HCl (pH7.5), 4 mM MgCl2, 1 mM CaCl2). Nuclei were then digested in digestion buffer with 50 gel units MNase (NEB) for 9 min at 27° C. in a final volume of 100 μl. The reaction was stopped by adding a final concentration of 1% SDS and 15 mM EGTA. Genomic DNA was purified and separated by gel electrophoresis (1.2% agarose).

[3] = system: OVCAR5-V5 (control plasmid) tumors; assay: Subcutaneous tumor growth in nude mice, control vector tumors; type: in vivo, athymic nude mice; conditions: carboplatin 20 mg/kg tail vein 1 time/week, control cell line
Description: (§1) 5 million OVCAR5-V5 or OVCAR5-V5-CT45 cells suspended in a 1:2 solution of serum-free media to growth-factor reduced matrigel were injected subcutaneously into the right and left flanks respectively, of 8 week old female athymic nude mice. After 5 days, treatment was administered through the tail vein 1 time/week at 20 mg/kg. Sterile water served as the control treatment. Tumor growth was measured every 2-3 days using calipers until the tumor neared 1 cm3 and was measured daily. Once the tumor reached 1 cm3 the mouse was sacrificed. 4 mice were removed from the study early due to ulcerations of the skin. All experiments were approved by the Institutional Animal Care and Use Committee of the University of Chicago.
as §1, with “Five million” for “5 million”, “8 weeks” for “8 week”, “1 cm^3” for “1 cm3”, “skin. […]” for “skin. All experiments were approved by the Institutional Animal Care and Use Committee of the University of Chicago.”

OVCAR5-V5-CT45 tumors = assay: Subcutaneous tumor growth in nude mice, CT45 expressing tumors; type: in vivo, athymic nude mice; conditions: carboplatin 20 mg/kg tail vein 1 time/week, vs untreated CT45 tumors
Description: as §1
as §1, with “Five million” for “5 million”, “8 weeks” for “8 week”, “1 cm^3” for “1 cm3”, “skin. […]” for “skin. All experiments were approved by the Institutional Animal Care and Use Committee of the University of Chicago.”

[4] = system: OVCAR5 CT45 expressing cells; assay: Proliferation with increasing concentrations of carboplatin; type: cell-based, human; conditions: CT45 expressing cells treated with carboplatin
Description: FIG. 8A-B. CT45 sensitizes cancer cells to carboplatin. a, Western blot of CT45 expression in ovarian cancer cell lines transduced with a CT45A5 lentivirus. b, Proliferation of OVCAR5 control (V5) or CT45 expressing cells with increasing concentrations of carboplatin.
FIG. 19A-F. CT45 sensitizes cancer cells to carboplatin. a, MTT of SKOV3ip1 cells with or without 500 nM DAC treated with increasing doses of carboplatin. Cells were pretreated with 500 nM DAC for 72 hr then cultured for 4 days and treated with carboplatin on day 7. The MTT was performed after 72 hr with carboplatin treatment. b, Western blot of CT45 expression in ovarian cancer cell lines transduced with a CT45A5 lentivirus. c, Proliferation of OVCAR5 control (V5) or CT45 expressing cells with increasing concentrations of carboplatin. d, Cell cycle analysis of OVCAR5 control (V5) or CT45 expressing cells stained with propidium iodide. e, Clonogenic survival assay of the ovarian cancer cell line OVKATE stably overexpressing CT45 or control. Dots represent mean values from three independent experiments. Error bars show s.e.m. for each group. f, Interaction proteomics screen in the ovarian cancer cell line COV318 stably over-expressing V5-tagged CT45. Protein enrichment (t-test difference) is calculated over the corresponding control cell line (V5 tag alone) and plotted against the t-test p-value (−log10). […]

SMILES: N.N.O=C([O-])C1(C(=O)[O-])CCC1.[Pt+2] [carboplatin]
- sensitivity of colony formation to carboplatin (59M cells): hypersensitive
- time of peak of phosphorylated KAP-1 ([1]; both cell lines): 3 days
- phosphorylation of KAP-1 at Ser824 [1]: induced phosphorylation
- chromatin relaxation [2]: induced global chromatin relaxation
- tumor growth [3]: no effect
- tumor growth (OVCAR5-V5-CT45 tumors): significantly reduced growth
- proliferation [4]: significantly reduced; also recorded: reduced proliferation
